# From patent US9547000B2, “Chromogenic absorbent material for animal litter and related chromogenic solution” (7905122 CANADA INC., priority 2012, dated 2017)
# Assay: Solubility of TMB in different solvents
# Type: physicochemical
# Text: The following Table 1 presents results regarding the solubility of TMB in different solvents.
smiles,measurement,setting,value
"Cc1cc(-c2cc(C)c(N)c(C)c2)cc(C)c1N [TMB, 3,3′,5,5′-tetramethylbenzidine]",solubility,"organic solvent or mixture, solvent Dimethylsulfonamide",1.6 mM
same,solubility,"organic solvent or mixture, solvent Ethyl acetate",10 mM
same,solubility,"organic solvent or mixture, solvent Methanol",5.2 mM
same,solubility,"water, solvent Water",0.1 mM
